Laboratory results: PMC12024912, “Druggability Studies of Benzene Sulfonamide Substituted Diarylamide (E3) as a Novel Diuretic” (Biomedicines, 2025)

Experiments:
mice [1] = test: Long-term (7 d) diuretic activity in mice; type: in vivo, mouse
Method: In a single-dose administration experiment, male wild-type (WT) mice, UT-B^-/- mice, UT-A1^-/- mice, or SD rats were adapted in metabolic cages for 3 d. Food and water were provided ad libitum throughout the experiment. Prior to administration, the bladder of each animal was emptied through gentle abdominal massage, and urine was collected from the metabolic cages every 2 h. Compound E3, suspended in 0.5% CMC-Na at an appropriate concentration, was administered intragastric gavage to the mice or rats (0.16, 0.8, 4, or 20 mg/kg). Vehicle control comprised 0.5% (w/v) CMC-Na. Urinary parameters were determined through the following: volume: Gravimetric analysis (1 g/mL density assumption); osmolality: freezing-point osmometry (Micro-osmometer, […] Associates, Norwood, MA, USA); and urea: diacetyl oxime colorimetry (QuantiChrom® kit, Elabscience, Wuhan, China). In long-term (7 d) diuretic activity experiments, male WT mice, UT-B^-/- mice, UT-A1^-/- mice, and SD rats were acclimatized in metabolic cages (Ugo Basile, Comerio, VA, Italy) for 3 d. Food and water were provided ad libitum throughout the experiment. E3 was suspended in 0.5% CMC-Na and administered at a dose of 4 or 20 mg/kg by intragastric gavage. Urine was collected by metabolic cages every 24 h. Body weight was measured daily. At 4 h after the final administration, a blood sample was obtained by heart puncture. Inner medulla and outer medulla tissue homogenates were prepared, and the supernatant after centrifugation was analyzed for solute concentration and osmolality. Urinary osmolality and urea concentration were measured as above. Serum Na^+, K^+, and Cl^- were measured in a clinical chemistry laboratory, while serum creatinine, ALT, and AST were measured through specific reagent kits (NJJC Bio, Nanjing, China).

rat UT-B = molecular target: T1, rat UT-B (Rattus norvegicus, UniProt P97689); test: Transwell assay of UT-B inhibition in UT-B-MDCK cells; type: cell-based; details: read-out: IC50 against UT-B-mediated urea permeability
T1 construct: expressed in transfected cells
T1 sequence (P97689 1-384): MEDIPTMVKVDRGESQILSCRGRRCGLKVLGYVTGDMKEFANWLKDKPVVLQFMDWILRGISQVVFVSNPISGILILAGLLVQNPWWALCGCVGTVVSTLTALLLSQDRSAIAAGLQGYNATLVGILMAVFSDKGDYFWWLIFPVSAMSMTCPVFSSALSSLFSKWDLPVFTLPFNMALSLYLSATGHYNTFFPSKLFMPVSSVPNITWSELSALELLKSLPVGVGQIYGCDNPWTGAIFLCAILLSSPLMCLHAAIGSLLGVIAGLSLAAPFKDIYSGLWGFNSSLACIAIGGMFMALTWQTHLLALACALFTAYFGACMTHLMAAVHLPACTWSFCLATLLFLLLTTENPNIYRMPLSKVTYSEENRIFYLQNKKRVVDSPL
Method: MDCK cells stably expressing rat UT-A1 or UT-B were cultured in DMEM supplemented with 10% FBS, and the mRNA levels of UT-A1 and UT-B were measured in our previous research. Urea flux was assessed according to previously established methods. MDCK cells (2 × 10^5 cells/cm^2) were grown on 12 mm collagen-coated Costar Transwell inserts (0.4 μm pore size, Corning) for 4 d at 37 °C in the presence of 5% CO2. Once the cells on the apical side formed a tight monolayer (transepithelial resistance 1 kΩ/cm^2), PBS (pH = 7.4, containing 10 μmol/L forskolin) with E3 or DMSO was added to the top (0.25 mL) and bottom (1 mL) compartments, and the cultures were incubated in the absence of urea for 30 min at 37 °C. As UT-B is located in the plasma membrane while UT-A1 resides in the cytoplasm, forskolin was used to stimulate the translocation of UT-A1 from the cytoplasm to the membrane for urea transport. Subsequently, the solution in the bottom compartment was replaced with PBS (pH 7.4, containing 10 μmol/L forskolin and E3 or DMSO) supplemented with 15 mmol/L urea. Apical fluid samples (5 μL) were collected at 0, 1, 3, 5, 10, 15, 20, 30, 40, 50, and 60 min. The samples were subjected to an assay for urea (Urea Colorimetric Assay Kit (Diacetyl Oxime Method), Elabscience, Wuhan, China) according to the kit procedure. Then, the inhibition rate was calculated as described previously.

[2] = Subacute oral toxicity test in mice; type: in vivo; details: male, mouse, in vivo, 1000 mg/kg, oral, 30 d, read-out: no observed adverse effect level (NOAEL)
Method: (§1) The subacute oral toxicity test was performed according to “Guidance on Repeated Dose Toxicity Study for Pharmaceuticals” (2014). […] Eighteen male mice were evenly divided into two groups. Mice of the control group were orally administered with solvent (0.5% CMC-Na). Another group was orally administered with E3 1000 mg/kg. The solvent or E3 was administered once a day for 30 continuous days and withdrawn for 14 d for recovery. After the 30-day treatment, 12 mice (6/group) were chosen at random and sacrificed for necropsy.
(§2) During the study, the clinical symptoms, morbidity, and mortality of mice were observed twice a day at the side of the cage. Changes in appearance, behavior, appetite, gait, secretions, and excretions of the rats were meticulously documented. The body weights were measured before the start of the experiment, and the weights were measured every 2 d thereafter. Echocardiography was performed and evaluated every 10 d. Under anesthesia, blood samples were taken before the autopsy for hematological and clinical biochemistry analysis by an automated hematology analyzer (HEMAVET 950FS, Drew Scientific, TX, USA) and an automated biochemical analyzer (BS-180, Mindray Diagnostics, Shenzhen, China). The following organs were weighed: heart, liver, kidney, spleen, lung, thymus gland, testis, and brain. Furthermore, the corresponding organ/body weight ratio was computed. A comprehensive histopathological analysis was performed on vital tissues and organs.

mice [3] = test: Subacute oral toxicity test in mice; type: in vivo
Method: as §1, §2

[4] = UT-B−/− mice, long-term treatment
[5] = mice, oral 20 mg/kg, consecutive administrations

## CC(=O)c1ccc(C(=O)Nc2cccc(NS(=O)(=O)c3ccccc3)c2)o1 [Compound E3, 5-acetyl-N-(3-(phenylsulfonamido)phenyl)furan-2-carboxamide]
Mice [1]; UT-A1−/− mice, long-term treatment
  diuretic effect: no significant diuretic effect
Mice [1]; [4]
  urine osmolality: decreased
  urine output: increased
Mice [1]; [5]
  excretion of non-urea solutes: no significant difference
  urine osmolality: significantly decreased
  urine output: significantly increased
  urine urea concentration: significantly decreased
Rat UT-B
  IC50: 0.058 µM
[2]
  NOAEL at 30 d: 1000 mg/kg/day
Mice [3]; 1000 mg/kg daily oral, 30 days
  appearance, behavior, secretions, and excretions: no apparent abnormality
  body weight or organ indexes: no significant change
  histopathology of brain, lung, heart, spleen, liver, kidney, testis: No histopathological toxic lesion
Mice [3]; 1000 mg/kg daily oral, 30 days, vs control
  blood parameters and blood biochemical indexes: no significant changes
Mice [3]; 1000 mg/kg daily, during and after administration
  left ventricular ejection fraction and fractional shortening (cardiac ultrasound): no significant abnormality
Mice [3]; 1 g/kg, 30 d, mean, n=9
  EOS: 0.13%
  HB: 80.11 g/L
  HCT: 41.04%
  LYM: 74.12%
  MCH: 9.96 pg
  MCHC: 195.33 g/L
  MCV: 51.09 fL
  MONO: 3.02%
  MPV: 3.01 fL
  NEU: 22.71%
  PLT: 1313.22 109/L
  RBC: 8.03 1012/L
  RDW: 16.07%
  WBC: 8.37 109/L
Mice [3]; after 30 d of 1000 mg/kg
  delayed toxicity (14 d recovery period): no delayed toxicity
